Assay results published in patent publication US9492471B2, “Methods of treating a disease or disorder associated with Bruton'S Tyrosine Kinase” (Celgene Avilomics Research, Inc., priority 2013, dated 2016).

Key:
patients with CLL = assay: Compound 1 besylate monotherapy in CLL patients; format: in vivo, human
Environmental stability = format: physicochemical
[1] = monotherapy, as of Sep. 11, 2012

## C=CC(=O)Nc1cccc(Nc2nc(Nc3ccc(OCCOC)cc3)ncc2F)c1.O=S(=O)(O)c1ccccc1 [N-(3-(5-fluoro-2-(4-(2-methoxyethoxy)phenylamino)pyrimidin-4-ylamino)phenyl)acrylamide benzenesulfonic acid salt]
Patients with CLL; [1]
  patients with CLL with stable disease continuing on treatment: 35 out of 43
  patients with early increases in absolute lymphocyte counts (ALC): 28 of 33
  patients with reductions in lymph node size: 15 of 23
Environmental stability
  environmental instabilities (heat, acid, base): no environmental instabilities

## C=CC(=O)Nc1cccc(Nc2nc(Nc3ccc(OCCOC)cc3)ncc2F)c1 [Compound 1, N-(3-(5-fluoro-2-(4-(2-methoxyethoxy)phenylamino)pyrimidin-4-ylamino)phenyl)acrylamide]
Patients with CLL; single agent, up to 750 mg PO QD
  maximum tolerated dose (MTD): has not yet been reached
